Converted amounts (≈) assume the structure as drawn.
Key:
Experiment in all cases: ≥ marks a high value that may be exact or a test limit, other limits are often not marked, values filed in µg/mL are converted to µM
[1] = system: Candida tropicalis
[2] = system: Staphylococcus aureus NCTC 10788
[3] = system: Candida albicans
[4] = system: Enterococcus faecalis ATCC 29212
[5] = system: Pseudomonas aeruginosa ATCC 27853
[6] = system: Escherichia coli ATCC 25922
[7] = system: Candida albicans ATCC 1023
[8] = system: Enterococcus faecalis NCTC 12697
[9] = system: Escherichia coli NCTC 10418
[10] = system: Staphylococcus aureus ATCC 25923
[11] = system: Staphylococcus aureus BCRC 10781
[12] = system: Enterobacter cloacae BCRC 10401
[13] = system: Streptococcus equinus BCRC 14729
[14] = system: Pseudomonas aeruginosa BCRC 10944
[15] = system: Staphylococcus xylosus BCRC 12930
[16] = system: Listeria monocytogenes BCRC 14845
[17] = system: Lactococcus garvieae
[18] = system: Klebsiella oxytoca BCRC 13985
[19] = system: Klebsiella aerogenes BCRC 10370
[20] = system: Vibrio parahaemolyticus BCRC 10806
[21] = system: Vibrio anguillarum serotype O1
[22] = system: Vibrio parahaemolyticus
[23] = system: Escherichia coli BCRC 10675
[24] = system: Streptococcus iniae
[25] = system: Staphylococcus aureus BCRC 10780
[26] = system: Vibrio alginolyticus
[27] = system: Yersinia enterocolitica BCRC 13999
[28] = system: Vibrio harveyi
[29] = system: Vibrio alginolyticus BCRC 12829

## CSCC[C@H](NC(=O)[C@H](CC(=O)O)NC(=O)[C@@H](NC(=O)[C@@H](NC(=O)[C@H](C)NC(=O)[C@H](CC(N)=O)NC(=O)[C@H](CC(C)C)NC(=O)[C@H](C)NC(=O)[C@H](C)NC(=O)[C@H](CCCCN)NC(=O)CNC(=O)[C@H](C)NC(=O)[C@H](C)NC(=O)[C@H](CCCCN)NC(=O)CNC(=O)[C@@H](NC(=O)[C@H](CC(N)=O)NC(=O)[C@H](CCCCN)NC(=O)[C@H](CC(C)C)NC(=O)[C@H](CC(C)C)NC(=O)[C@@H](NC(=O)[C@H](CCCCN)NC(=O)[C@H](Cc1c[nH]c2ccccc12)NC(=O)[C@H](CC(C)C)NC(=O)[C@H](C)N)[C@@H](C)O)C(C)C)C(C)C)[C@@H](C)O)C(=O)N[C@H](C(=O)N[C@@H](CC(N)=O)C(=O)N[C@@H](CCC(N)=O)C(=O)O)C(C)C [ALWKTLLKNVGKAAGKAALNAVTDMVNQ]
[1]
  MIC: 10.9 µM (≈ 31.9 µg/mL)
[2]
  MIC: 1.3 µM (≈ 3.8 µg/mL)
[3]
  MIC: 21.8 µM (≈ 63.8 µg/mL)
[4]
  MIC: 10 µM (≈ 29.3 µg/mL)
[5]
  MIC: 40 µM (≈ 117 µg/mL)
[6]
  MIC: 2.5 µM (≈ 7.32 µg/mL)
[7]
  MIC: 10.9 µM (≈ 31.9 µg/mL)
[8]
  MIC: 10 µM (≈ 29.3 µg/mL)
[9]
  MIC: 2.5 µM (≈ 7.32 µg/mL)
[10]
  MIC: 1.3 µM (≈ 3.8 µg/mL)

## CC[C@H](C)[C@H](NC(=O)[C@H](CCCCN)NC(=O)[C@@H](NC(=O)[C@@H](NC(=O)[C@@H](NC(=O)[C@H](CCCCN)NC(=O)[C@@H](NC(=O)[C@@H](NC(=O)[C@H](CCCCN)NC(=O)[C@H](CCCCN)NC(=O)[C@H](C)NC(=O)[C@H](Cc1ccc(O)cc1)NC(=O)[C@@H](NC(=O)[C@H](C)NC(=O)CN)[C@@H](C)O)[C@@H](C)CC)[C@@H](C)CC)[C@@H](C)O)[C@@H](C)CC)[C@@H](C)O)C(=O)N[C@@H](C)C(=O)N[C@H](C(=O)N[C@H](C(=O)N[C@@H](C)C(=O)N[C@@H](Cc1c[nH]c2ccccc12)C(=O)O)[C@@H](C)O)[C@@H](C)O [GATYAKKIIKTITKIATTAW]
[11]
  MIC: ≥ 58.7 µM
[12]
  MIC: 14.7 µM (≈ 32 µg/mL)
[13]
  MIC: ≥ 58.7 µM
[14]
  MIC: 29.4 µM (≈ 64 µg/mL)
[15]
  MIC: 29.4 µM (≈ 64 µg/mL)
[16]
  MIC: ≥ 58.7 µM
[17]
  MIC: ≥ 58.7 µM
[18]
  MIC: 29.4 µM (≈ 64 µg/mL)
[19]
  MIC: 29.4 µM (≈ 64 µg/mL)
[20]
  MIC: ≥ 58.7 µM
[21]
  MIC: 29.4 µM (≈ 64 µg/mL)
[22]
  MIC: 29.4 µM (≈ 64 µg/mL)
[23]
  MIC: 7.34 µM (≈ 16 µg/mL)
[24]
  MIC: ≥ 58.7 µM
[25]
  MIC: ≥ 58.7 µM
[26]
  MIC: 29.4 µM (≈ 64 µg/mL)
[27]
  MIC: ≥ 58.7 µM
[28]
  MIC: 29.4 µM (≈ 64 µg/mL)
[29]
  MIC: ≥ 58.7 µM

## CC[C@H](C)[C@H](NC(=O)[C@H](C)NC(=O)[C@@H](NC(=O)[C@H](Cc1ccc(O)cc1)NC(=O)[C@@H](NC(=O)[C@H](CCCCN)NC(=O)[C@H](CCCCN)NC(=O)[C@H](C)NC(=O)[C@H](Cc1ccccc1)NC(=O)[C@H](CC(N)=O)NC(=O)[C@H](CC(C)C)NC(=O)[C@@H](NC(=O)[C@H](CCCCN)NC(=O)[C@H](CCCCN)NC(=O)[C@H](CC(C)C)NC(=O)[C@H](Cc1ccccc1)NC(=O)[C@@H](NC(=O)[C@H](CC(C)C)NC(=O)CN)[C@@H](C)O)[C@@H](C)CC)[C@@H](C)CC)[C@@H](C)O)C(=O)N[C@@H](Cc1c[nH]c2ccccc12)C(=O)O [GLTFLKKILNFAKKIYTAIW]
[11]
  MIC: 6.75 µM (≈ 16 µg/mL)
[12]
  MIC: 6.75 µM (≈ 16 µg/mL)
[13]
  MIC: ≥ 54 µM
[14]
  MIC: 13.5 µM (≈ 32 µg/mL)
[15]
  MIC: 6.75 µM (≈ 16 µg/mL)
[16]
  MIC: 3.38 µM (≈ 8 µg/mL)
[17]
  MIC: 13.5 µM (≈ 32 µg/mL)
[18]
  MIC: ≥ 54 µM
[19]
  MIC: 6.75 µM (≈ 16 µg/mL)
[20]
  MIC: 13.5 µM (≈ 32 µg/mL)
[21]
  MIC: 3.38 µM (≈ 8 µg/mL)
[22]
  MIC: 3.38 µM (≈ 8 µg/mL)
[23]
  MIC: 13.5 µM (≈ 32 µg/mL)
[24]
  MIC: 13.5 µM (≈ 32 µg/mL)
[25]
  MIC: 6.75 µM (≈ 16 µg/mL)
[26]
  MIC: 3.38 µM (≈ 8 µg/mL)
[27]
  MIC: 27 µM (≈ 64 µg/mL)
[28]
  MIC: 3.38 µM (≈ 8 µg/mL)
[29]
  MIC: 13.5 µM (≈ 32 µg/mL)

## CC[C@H](C)[C@H](NC(=O)[C@H](Cc1ccc(O)cc1)NC(=O)[C@H](CCCCN)NC(=O)[C@H](Cc1ccccc1)NC(=O)[C@H](Cc1ccccc1)NC(=O)[C@H](CCCCN)NC(=O)[C@H](CC(N)=O)NC(=O)[C@@H](NC(=O)[C@H](Cc1ccc(O)cc1)NC(=O)[C@H](CCCCN)NC(=O)[C@@H](NC(=O)[C@@H](NC(=O)[C@H](CC(N)=O)NC(=O)[C@H](CC(N)=O)NC(=O)[C@@H](NC(=O)[C@H](Cc1ccc(O)cc1)NC(=O)[C@H](CCCCN)NC(=O)[C@H](Cc1ccc(O)cc1)NC(=O)CN)[C@@H](C)CC)[C@@H](C)CC)[C@@H](C)CC)[C@@H](C)CC)C(=O)N[C@@H](Cc1c[nH]c2ccccc12)C(=O)O [GYKYINNIIKYINKFFKYIW]
[11]
  MIC: 3.04 µM (≈ 8 µg/mL)
[12]
  MIC: 6.09 µM (≈ 16 µg/mL)
[13]
  MIC: ≥ 48.7 µM
[14]
  MIC: 12.2 µM (≈ 32 µg/mL)
[15]
  MIC: 3.04 µM (≈ 8 µg/mL)
[16]
  MIC: 12.2 µM (≈ 32 µg/mL)
[17]
  MIC: ≥ 48.7 µM
[18]
  MIC: 6.09 µM (≈ 16 µg/mL)
[19]
  MIC: 6.09 µM (≈ 16 µg/mL)
[20]
  MIC: 12.2 µM (≈ 32 µg/mL)
[21]
  MIC: 3.04 µM (≈ 8 µg/mL)
[22]
  MIC: 3.04 µM (≈ 8 µg/mL)
[23]
  MIC: 6.09 µM (≈ 16 µg/mL)
[24]
  MIC: 12.2 µM (≈ 32 µg/mL)
[25]
  MIC: 3.04 µM (≈ 8 µg/mL)
[26]
  MIC: 3.04 µM (≈ 8 µg/mL)
[27]
  MIC: ≥ 48.7 µM
[28]
  MIC: 3.04 µM (≈ 8 µg/mL)
[29]
  MIC: 12.2 µM (≈ 32 µg/mL)

— DBAASP
